From US5298614A, “Size limited double stranded poly I poly(cytidylate/4-thiouridylate)” (Nippon Shinyaku Co. Ltd., priority 1986, dated 1994)
Marks after values point to notes of the source that are not given here.

Legend:
[1] = test system: Hep-2; assay: Proliferation inhibiting action in nude mice bearing human tumor cells; format: in vivo, human tumor cells in nude mice (BALB/c); settings: test sample 100 μg/mouse i.v., 5-FU 25 mg/kg i.p., twice a week for four weeks
Description: (§1) Each 2.5×10^6 of cell strain HeLa S3 derived from human uterus neck and cell strain Hep-2 derived from throat cancer cells were transplanted under the skin of the nude abdomen of male nude mice 5 weeks old derived from BALB/c and, on the 7th to 10th day after the transplantation, living cohesion of tumor was confirmed. Then 100 μg/mouse of test sample (intravenously) and 25 mg/kg of 5-FU (intraperitoneally) were administered twice a week for four weeks. Tumor was extracted on the fourth week after the admininstration and the weight were measured.
(§2) The test samples used were the same as that in the above (1).

[2] = test system: HeLa S3; assay: as above; format: in vivo, human tumor cells in nude mice (BALB/c); settings: test sample 100 μg/mouse i.v., 5-FU 25 mg/kg i.p., twice a week for four weeks
Description: as §1, §2

[3] = test system: interleukin 1 (cohesive cells from human peripheral blood); assay: Inducing activity of interleukin 1, 3H-thymidine in-take into PHA-stimulated mice thymus cells; format: cell-based; settings: samples 100α/ml; interleukin 1 1.25 units/ml; saline control 3370
Description: Mononuclear particles were separated from normal human heparin-added peripheral blood by specific gravity centrifugation method using Ficoll-Hypaque (Pharmacia, Ficollpaque, trademark), the numbers were adjusted to 5×10^6 /ml in a 10% FCS-added RPMI medium, placed in a plastic dish, incubated at 37° C. for one hour, and the cohesive cells were used as an interleukin 1-producing source.
The sample to be tested was added to the 5×10^5 /ml of single particle, incubated at 37° C. for 24 hours, and the interleukin 1 activity in the supernatant liquid was determined by measuring a ^3 H-thymidine in-take method into a PHA-stimulated mice thymus cells using a proliferation ability of the thymus cells as a target. The control was physiological saline solution.

[4] = test system: venom phosphodiesterase; assay: Resistance against hydrolysis, time until hydrolysis arrives at 50%; format: in vitro ADME; settings: venom phosphodiesterase enzymatic reaction
Description: Then the resistance against hydrolysis by RNase was compared in terms of the time ratio until the hydrolysis arrives at 50%. Thus, under conditions such as venom phosphodiesterase enzymatic reaction, poly I:poly C was 50 minutes while those of nucleic acid derivatives containing 4-thiouridine (SH group) and its S--S bond (n=20) are 60 minutes and, by contrast, those of nucleic acid derivatives (n=20) containing uridine (OH group) were as short as 20 minutes.

[5] = 50% melting temperature (Tm) and hyperchromicity, UV absorbance at 260 nm; format: physicochemical; settings: neutral condition, aqueous buffer solution containing 0.1M sodium ion
Description: If the stabilization of the double stranded complex formation in nucleic acid polymer is shown with reference to the 50% melting temperature (Tm value), poly I:poly C has a 59.0° C. under a neutral condition in aqueous buffer solution containing 0.1M sodium ion while the SH-substituted nucleic acid derivative containing 4-thiouridine (n=20) and the S-substituted nucleic acid derivative (n=20) have a 59.5° C. and 59.3° C., respectively.
Among the nucleic acid derivatives obtained by the above example, those with 50 to 2,000 residue numbers of molecular size distribution were taken and their fusing curves were measured.
Sample I or II (0.7 OD/ml) in 10 mM Tris buffer (pH 7.5) containing 0.1M sodium chloride was warmed, at the rising rate of 2° C./4 minutes, from 20° C. to 90° C., the ultraviolet absorbancy at each temperature was measured at the wavelength of 260 nm, and an increase of ultraviolet absorbancy by a hyperchromicity was represented by a relative ratio giving the state at 20° C. as a base. A Beckmann-DU-8B spectrophotometer was used for the measurement. Melting of the nucleic acid derivatives was gradually observed during 35° C. to 55° C. and, at around 59° C., a sudden fusion curve was obtained. […]

[6] = Pyrogen test to rabbits; format: in vivo; settings: 0.2 microgram/kg i.v., 4 hours after injection
Description: Injection of poly I:poly C in vivo has been known to be pyrogenic. […] On the contrary, the nucleic acid derivatives of the present invention (both SH and S--S substances in the above cytotoxic experiment) show only 0.25° C. rise in body temperature on average and the result of the pyrogenic test was negative. In those experiments, three rabbits per group were used and a solution of the sample (0.2 microgram/kg) in 10 ml of physiological saline solution was intravenously injected beneath the ear of the rabbits and the body temperature at 4 hours after the injection was observed.

O=c1[nH]cc(F)c(=O)[nH]1 [5-FU, 5-fluorouracil]
Inhibition Rate (%) [1]: 30%
Weight (g) ± S.E. of tumor ([1]; control 0.88 ± 0.07): 0.56 ± 0.12 g
Inhibition Rate (%) [2]: 47%
Weight (g) ± S.E. of tumor ([2]; control 3.85 ± 0.23): 2.06 ± 0.35 g

Interleukin 1
In-Take Amount [3]: 12517 DPM (× 10^4)

polyinosinic acid-polycitydylic acid [poly I:poly C]
time until the hydrolysis arrives at 50% [4]: 50 min
50% melting temperature (Tm value) [5]: 59.0 °C
body temperature rise, average [6]: 1.45 °C
